Source: US9833497B2, “Human originated EGF domain proteins and use of the same” (CHENGDU SOURCEBIO LIMITED-LIABILITY COMPANY, priority 2013, dated 2017)

How the values were obtained:
Format in all cases: cell-based
Aeromonas hydrophila = assay: MIC against Gram-negative bacteria: Aeromonas hydrophila; settings: for MIC A. hydrophila / MIC against A. hydrophila: 5×10^5 CFU/mL; for MIC against A. hydrophila: Aeromonas hydrophila
How it was run: (§1)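 Read-out is absence of bacterial growth, with MIC set at the lowest recombinant protein concentration achieving it. Bacteria, pre-grown in LB to McFarland 0.5 and resuspended, were exposed at 5×10^5 CFU/mL to two-fold diluted human EGF domain proteins in triplicate at 37° C, 175 rpm.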

Citrobacter diversus = assay: MIC against Gram-negative bacteria: Citrobacter diversus; settings: for MIC C. diversus / MIC against C. diversus: 5×10^5 CFU/mL; for MIC against C. diversus: Citrobacter diversus
How it was run: as §1

Proteus vulgaris = assay: MIC against Gram-negative bacteria: Proteus vulgaris; settings: for MIC P. vulgaris / MIC against P. vulgaris: 5×10^5 CFU/mL; for MIC against P. vulgaris: Proteus vulgaris
How it was run: as §1

E. coli DH5α = assay: Antibacterial activity: MIC and growth curve against E. coli DH5α in 96-well plate; settings: minimal inhibitory concentration against E. coli DH5α; 96-well plate, 5×10^5 CFU/mL, 37° C., judged after 8 h
How it was run: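 Log-phase DH5α (OD600 about 0.5, 37° C, 185 rpm in LB) was pelleted, resuspended in fresh LB and seeded at 5×10^5 CFU/mL with recombinant protein at 50, 25 and 12.5 μg/mL (two-fold series), in triplicate. Plates were shaken at 175 rpm, 37° C, and OD600 was read every 30 min. MIC was the lowest concentration with no growth.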

Klebsiella pneumonia = assay: MIC against Gram-negative bacteria: Klebsiella pneumonia; settings: for MIC K. pneumonia / MIC against K. pneumonia: 5×10^5 CFU/mL; for MIC against K. pneumonia: Klebsiella pneumonia
How it was run: as §1

Moraxella catarrhalis = assay: MIC against Gram-negative bacteria: Moraxella catarrhalis; settings: for MIC M. catarrhalis / MIC against M. catarrhalis: 5×10^5 CFU/mL; for MIC against M. catarrhalis: Moraxella catarrhalis
How it was run: as §1

Pseudomonas aeruginosa = assay: MIC against Gram-negative bacteria: Pseudomonas aeruginosa; settings: for MIC P. aeruginosa / MIC against P. aeruginosa: 5×10^5 CFU/mL; for MIC against P. aeruginosa: Pseudomonas aeruginosa
How it was run: as §1

E. coli BL21 = assay: MIC against Gram-negative bacteria: E. coli BL21; settings: for MIC E. coli BL21 / MIC against E. coli BL21: 5×10^5 CFU/mL
How it was run: as §1

Proteus mirabilis = assay: MIC against Gram-negative bacteria: Proteus mirabilis; settings: for MIC P. mirabilis / MIC against P. mirabilis: 5×10^5 CFU/mL; for MIC against P. mirabilis: Proteus mirabilis
How it was run: as §1

Serratia marcescens = assay: MIC against Gram-negative bacteria: Serratia marcescens; settings: for MIC S. marcescens / MIC against S. marcescens: 5×10^5 CFU/mL; for MIC against S. marcescens: Serratia marcescens
How it was run: as §1

Enterobacter cloacae = assay: MIC against Gram-negative bacteria: Enterobacter cloacae; settings: for MIC E. cloacae / MIC against E. cloacae: 5×10^5 CFU/mL; for MIC against E. cloacae: Enterobacter cloacae
How it was run: as §1

[1] = E. coli BL21, 10 h cultivation at 37° C.
[2] = 10 h cultivation at 37° C., two-fold serial dilution

## PRT639 (DADECLLFGQEICKNGFCLNTRPGYECYCKQGTYYDPVKLQCF; listed as Homo sapiens)
Aeromonas hydrophila; 96-well plate, 37° C., 10 h
  MIC A. hydrophila: 50 µg/mL
Citrobacter diversus; 96-well plate, 37° C., 10 h
  MIC C. diversus: 25 µg/mL
Proteus vulgaris; 96-well plate, 37° C., 10 h
  MIC P. vulgaris: 50 µg/mL
E. coli DH5α
  MIC: 12.5 µg/mL
Klebsiella pneumonia; 96-well plate, 37° C., 10 h
  MIC K. pneumonia: 50 µg/mL
Moraxella catarrhalis; 96-well plate, 37° C., 10 h
  MIC M. catarrhalis: 12.5 µg/mL
Pseudomonas aeruginosa; 96-well plate, 37° C., 10 h
  MIC P. aeruginosa: 12.5 µg/mL
E. coli BL21; 96-well plate, 37° C., 10 h
  MIC E. coli BL21: 50 µg/mL
Proteus mirabilis; 96-well plate, 37° C., 10 h
  MIC P. mirabilis: 25 µg/mL
Serratia marcescens; 96-well plate, 37° C., 10 h
  MIC S. marcescens: 25 µg/mL
Enterobacter cloacae; 96-well plate, 37° C., 10 h
  MIC E. cloacae: 12.5 µg/mL

## PRT1288 (ADGPCHGHKCVHGQCVPLDALSYSCQCQDGYSGALCN; listed as Homo sapiens)
Aeromonas hydrophila; 96-well plate, 37° C., 10 h
  MIC against A. hydrophila: 12.5 µg/mL
Citrobacter diversus; 96-well plate, 37° C., 10 h
  MIC against C. diversus: 12.5 µg/mL
Proteus vulgaris; 96-well plate, 37° C., 10 h
  MIC against P. vulgaris: 25 µg/mL
E. coli DH5α
  MIC: 50 µg/mL
Klebsiella pneumonia; 96-well plate, 37° C., 10 h
  MIC against K. pneumonia: 25 µg/mL
Moraxella catarrhalis; 96-well plate, 37° C., 10 h
  MIC against M. catarrhalis: 50 µg/mL
Pseudomonas aeruginosa; 96-well plate, 37° C., 10 h
  MIC against P. aeruginosa: 12.5 µg/mL
E. coli BL21; E. coli BL21, 96-well plate, 37° C., 10 h
  MIC against E. coli BL21: 25 µg/mL
Proteus mirabilis; 96-well plate, 37° C., 10 h
  MIC against P. mirabilis: 12.5 µg/mL
Serratia marcescens; 96-well plate, 37° C., 10 h
  MIC against S. marcescens: 12.5 µg/mL
Enterobacter cloacae; 96-well plate, 37° C., 10 h
  MIC against E. cloacae: 50 µg/mL

## PRT677 (ETDECRLNQNICGHGECVPGPPDYSCHCNPGYRSHPQHRYCV; listed as Homo sapiens)
Aeromonas hydrophila; 96-well plate, 37° C., 10 h
  MIC A. hydrophila: 12.5 µg/mL
Citrobacter diversus; 96-well plate, 37° C., 10 h
  MIC C. diversus: 25 µg/mL
Proteus vulgaris; 96-well plate, 37° C., 10 h
  MIC P. vulgaris: 12.5 µg/mL
E. coli DH5α
  MIC: 50 µg/mL
Klebsiella pneumonia; 96-well plate, 37° C., 10 h
  MIC K. pneumonia: 50 µg/mL
Moraxella catarrhalis; 96-well plate, 37° C., 10 h
  MIC M. catarrhalis: 25 µg/mL
Pseudomonas aeruginosa; 96-well plate, 37° C., 10 h
  MIC P. aeruginosa: 12.5 µg/mL
E. coli BL21; 96-well plate, 37° C., 10 h
  MIC E. coli BL21: 25 µg/mL
Proteus mirabilis; 96-well plate, 37° C., 10 h
  MIC P. mirabilis: 50 µg/mL
Serratia marcescens; 96-well plate, 37° C., 10 h
  MIC S. marcescens: 50 µg/mL
Enterobacter cloacae; 96-well plate, 37° C., 10 h
  MIC E. cloacae: 25 µg/mL

## PRT1460 (CDCDTVGTRNGSILCDQIGGQCNCKRHVSGRQCNQCQNGFYNLQELDPDGCSP; listed as Homo sapiens)
Aeromonas hydrophila; 10 h cultivation at 37° C.
  MIC against A. hydrophila: 12.5 µg/mL
Citrobacter diversus; 10 h cultivation at 37° C.
  MIC against C. diversus: 25 µg/mL
Proteus vulgaris; 10 h cultivation at 37° C.
  MIC against P. vulgaris: 25 µg/mL
E. coli DH5α
  MIC: 12.5 µg/mL
Klebsiella pneumonia; 10 h cultivation at 37° C.
  MIC against K. pneumonia: 50 µg/mL
Moraxella catarrhalis; 10 h cultivation at 37° C.
  MIC against M. catarrhalis: 50 µg/mL
Pseudomonas aeruginosa; 10 h cultivation at 37° C.
  MIC against P. aeruginosa: 25 µg/mL
E. coli BL21; [1]
  MIC against E. coli BL21: 25 µg/mL
Proteus mirabilis; 10 h cultivation at 37° C.
  MIC against P. mirabilis: 12.5 µg/mL
Serratia marcescens; 10 h cultivation at 37° C.
  MIC against S. marcescens: 50 µg/mL
Enterobacter cloacae; 10 h cultivation at 37° C.
  MIC against E. cloacae: 25 µg/mL

## PRT1125 (LCDQCVTSPGCLHGLCGEPGQCICTDGWDGELCD; listed as Homo sapiens)
Aeromonas hydrophila; [2]
  MIC A. hydrophila: 12.5 µg/mL
Citrobacter diversus; [2]
  MIC C. diversus: 12.5 µg/mL
Proteus vulgaris; [2]
  MIC P. vulgaris: 12.5 µg/mL
E. coli DH5α
  MIC: 25 µg/mL
Klebsiella pneumonia; [2]
  MIC K. pneumonia: 12.5 µg/mL
Moraxella catarrhalis; [2]
  MIC M. catarrhalis: 12.5 µg/mL
Pseudomonas aeruginosa; [2]
  MIC P. aeruginosa: 12.5 µg/mL
E. coli BL21; [2]
  MIC E. coli BL21: 12.5 µg/mL
Proteus mirabilis; [2]
  MIC P. mirabilis: 12.5 µg/mL
Serratia marcescens; [2]
  MIC S. marcescens: 25 µg/mL
Enterobacter cloacae; [2]
  MIC E. cloacae: 12.5 µg/mL

## PRT943 (PNVSCDIAASRRGVLVEHLCQHSGVCINAGNTHYCQCPLGYTGSYCE; listed as Homo sapiens)
Aeromonas hydrophila; A. hydrophila, 10 h cultivation at 37° C.
  MIC: 12.5 µg/mL
Citrobacter diversus; C. diversus, 10 h cultivation at 37° C.
  MIC: 12.5 µg/mL
Proteus vulgaris; P. vulgaris, 10 h cultivation at 37° C.
  MIC: 12.5 µg/mL
E. coli DH5α
  MIC: 12.5 µg/mL
Klebsiella pneumonia; K. pneumonia, 10 h cultivation at 37° C.
  MIC: 12.5 µg/mL
Moraxella catarrhalis; M. catarrhalis, 10 h cultivation at 37° C.
  MIC: 12.5 µg/mL
Pseudomonas aeruginosa; P. aeruginosa, 10 h cultivation at 37° C.
  MIC: 12.5 µg/mL
E. coli BL21; [1]
  MIC: 12.5 µg/mL
Proteus mirabilis; P. mirabilis, 10 h cultivation at 37° C.
  MIC: 12.5 µg/mL
Serratia marcescens; S. marcescens, 10 h cultivation at 37° C.
  MIC: 50 µg/mL
Enterobacter cloacae; E. cloacae, 10 h cultivation at 37° C.
  MIC: 25 µg/mL
